≈ marks a conversion by molar mass, not a printed value. A value given as a limit tells only on which side of the number the result lay.

For nine molecules, MIC and IC50 results are on record in US10227362B2 (priority 2015, dated 2019).

Format in all cases: cell-based
Experiment [1] deals with Mycobacterium tuberculosis H37Rv strain. Kind of experiment: In vitro MIC against M. tuberculosis H37Rv strain (MABA, Alamar Blue). Here is the method: Part I: The in vitro efficacy of anti-Mycobacterium tuberculosis compounds was tested using H37Rv strain.
On the day of the test, the compound was dissolved in pure DMSO (Sigma 276855-2L) to a concentration of 10 mg/mL which was used as the mother liquor of the compound. 30 μL of DMSO was added to wells of column 2 to 11 s of the v-bottom 96-well plates (Axygen-wipp02280). 30 μL of the mother liquor of the compound was added to the well of column 2, after mixing, 30 μL was taken from the well of column 2 and added to the well of column 3, and then pipetted and mixed. The operation was taken to column 10. Column 11 was free of medicine and contained only 30 μL of DMSO. This was the “motherplate” of the compound. From column 2 to 11, the corresponding concentration of the compound was 5, 2.5, 1.25, 0.625, 0.3125, 0.156, 0.078, 0.039, 0.02, 0 mg/mL. […] A flat bottom 96-well plate (Greiner 655090) was used as a “daughterplate”. 98 μL of 7H9 (Sigma M0178) medium was added to the wells of all daughterplates. 2 μL of compound was extracted from the motherboard and added to the corresponding daughter plate. Line A and H, column 1 and 12 of the daughterplate contained only 7H9 medium.
The H37Rv strain in the glycerol cryovial was inoculated into 7H9 medium containing 0.05% Tween 80 and cultured for 4 weeks at 37° C. in a shaker with 200 rpm. The bacterial liquid was washed twice with 7H9 medium containing 0.05% Tween 80 and resuspended in the same medium. The absorbance of the bacteria liquid was adjusted to OD550=0.4-0.5 using the same medium. The bacteria liquid was sub-packed in microcentrifuge tubes and stored at −80° C. Storage time was no more than 1 month. On the day of the test, the packaged bacteria liquid would be […]. The bacteria liquid was diluted 20 times and then diluted 50 times with 7H9 medium, and a total of 1000 times dilution. The bacteria liquid would be used to inoculate on the daughterplate. 100 μL of bacterial liquid was inoculated in each well of the daughterboard, 100 μL 7H9 medium was added to column 12 and without bacteria liquid.
The test daughterplate was placed in an incubator at 37° C. and the humidity was maintained at >80%. A week later, 12.5 μL of 7H9 medium containing 20% Tween 80 and 20 μL of Alamar Blue (Invitrogen DAL1100) were added to the well of a column 1 containing bacteria and the well of a column 12 without bacteria every day, and then continue to incubate for 24 hours and observed. When the added Alamar Blue was reduced to pink in 24 hours by the bacteria liquid in the well of column 1, the 7H9 medium containing 20% Tween 80 and Alamar Blue were added to all wells on the test plate and the fluorescence values were measured after incubation for 24 hours at 37° C.
(Alamar Blue is a resazurin reagent that responds to reducing activity.)

The subject of experiment [2] is Vero Cell. Nature of the experiment: Vero cell cytotoxicity. The note with it: Chlorocebus sabaeus, Vero cells.
The subject of experiment [3] is M. tuberculosis H37R. Kind of experiment: M. tuberculosis LORA MIC. Particulars: Mycobacterium tuberculosis, read-out: M. tuberculosis H37R LORA (MIC) (ug/mL).
Experiment [4] has as its system Mycobacterium bovis BCG strain TMC1019 (ATCC35737). Kind of experiment: microbe, parasite or virus in culture. The note with it: Mycobacterium tuberculosis variant bovis BCG, 24 h, read-out: M. bovis ATCC35737 (ug/mL).

In the case of `C[C@]1(CN2CCc3nc(-c4ccco4)ccc3C2)Cn2cc([N+](=O)[O-])nc2O1` [Compound 25, (S)-2-((2-(Furan-2-yl)-7,8-dihydro-1,6-naphthyridin-6(5H)-yl)methyl)-2-methyl-6-nitro-2,3-dihydroimidazo[2,1-b]oxazole], the MIC in experiment [1] is below 1 µg/mL; in experiment [3], 1 to 32 µg/mL (≈ 2.62 to 83.9 µM); in experiment [4], below 1 µg/mL. The half-inhibitory concentration (IC50) in experiment [2] was above 32 µg/mL.

Regarding `C[C@]1(CN2Cc3nc(-c4ccc(F)cc4F)sc3C2)Cn2cc([N+](=O)[O-])nc2O1` [Compound 78, (S)-2-((2-(2,4-Difluorophenyl)-4H-pyrrolo[3,4-d]thiazol-5(6H)-yl)methyl)-2-methyl-6-nitro-2,3-dihydroimidazo[2,1-b]oxazole], the MIC in experiment [1] and in experiment [4] was below 1 µg/mL each time. Moreover, the IC50 in experiment [2] was above 32 µg/mL.

Regarding `C[C@]1(CN2Cc3nc(-c4ccc(F)cc4Cl)sc3C2)Cn2cc([N+](=O)[O-])nc2O1` [Compound 77, (S)-2-((2-(2-chloro-4-fluorophenyl)-4H-pyrrolo[3,4-d]thiazol-5(6H)-yl)methyl)-2-methyl-6-nitro-2,3-dihydroimidazo[2,1-b]oxazole], the MIC in experiment [1] and in experiment [4] was below 1 µg/mL in each case. In experiment [2], this molecule had an IC50 above 32 µg/mL.

For the molecule `C[C@]1(CN2CCCc3nc(-c4ccc(F)cc4)ccc3C2)Cn2cc([N+](=O)[O-])nc2O1` [Compound 96, (S)-2-((2-(4-Fluorophenyl)-8,9-dihydro-5H-pyrido[3,2-c]azepin-6(7H)-yl)methyl)-2-methyl-6-nitro-2,3-dihydroimidazo[2,1-b]oxazole], the MIC in experiment [1] was below 1 µg/mL; in experiment [3], 1 to 32 µg/mL (≈ 2.36 to 75.6 µM); in experiment [4] it was below 1 µg/mL. In experiment [2], this molecule gave an IC50 above 32 µg/mL.

For `C[C@]1(CN2CCc3nc(-c4ccc(Cl)c(F)c4)ccc3C2)Cn2cc([N+](=O)[O-])nc2O1` [Compound 20, (S)-2-((2-(4-Chloro-3-fluorophenyl)-7,8-dihydro-1,6-naphthyridin-6(5H)-yl)methyl)-2-methyl-6-nitro-2,3-dihydroimidazo[2,1-b]oxazole], the MIC in experiment [1] was below 1 µg/mL; in experiment [3], 1 to 32 µg/mL (≈ 2.25 to 72.1 µM); in experiment [4] it was below 1 µg/mL. Further, the 50% inhibitory concentration (IC50) in experiment [2] was above 32 µg/mL.

Take `C[C@]1(CN2CCc3nc(-c4ccc(F)cc4)oc3C2)Cn2cc([N+](=O)[O-])nc2O1` [Compound 61, (S)-2-(4-Fluorophenyl)-5-((2-methyl-6-nitro-2,3-dihydroimidazo[2,1-b]oxazol-2-yl)methyl)-4,5,6,7-tetrahydrooxazolo[5,4-c]pyridine]: the MIC in experiment [1] was below 1 µg/mL; in experiment [3], 1 to 32 µg/mL (≈ 2.5 to 80.1 µM); in experiment [4] it was below 1 µg/mL. The half-maximal inhibitory concentration (IC50) in experiment [2] is above 32 µg/mL.

As for `CN(c1ccc(F)cc1)c1nc2c(s1)CN(C[C@@]1(C)Cn3cc([N+](=O)[O-])nc3O1)C2` [Compound 85, (S)—N-(4-Fluorophenyl)-N-methyl-5-((2-methyl-6-nitro-2,3-dihydroimidazo[2,1-b]oxazol-2-yl)methyl)-5,6-dihydro-4H-pyrrolo[3,4-d]thiazol-2-amine], the MIC in experiment [1] and in experiment [4] was below 1 µg/mL throughout. In experiment [2], this molecule had an IC50 above 32 µg/mL.

Consider `C[C@]1(CN2Cc3nc(-c4ccc(F)c(F)c4)sc3C2)Cn2cc([N+](=O)[O-])nc2O1` [Compound 71, (S)-2-((2-(3,4-Difluorophenyl)-4H-pyrrolo[3,4-d]thiazol-5(6H)-yl)methyl)-2-methyl-6-nitro-2,3-dihydroimidazo[2,1-b]oxazole], for which the MIC in experiment [1] and in experiment [4] was below 1 µg/mL in each case. The IC50 in experiment [2] is above 32 µg/mL.

For `C[C@]1(CN2CCc3sc(-c4ccc(F)cc4)nc3C2)Cn2cc([N+](=O)[O-])nc2O1` [Compound 67, (S)-2-((2-(4-Fluorophenyl)-6,7-dihydrothiazolo[4,5-c]pyridin-5(4H)-yl)methyl)-2-methyl-6-nitro-2,3-dihydroimidazo[2,1-b]oxazole], the MIC in experiment [1] and in experiment [4] was below 1 µg/mL each time. For the same molecule, the 50% inhibitory concentration (IC50) in experiment [2] was above 32 µg/mL.

As usually defined, the IC50 is the concentration that inhibits the measured activity by half. A high value points to weaker potency.
